Assay results: patent publication US11135211B2, “Pimavanserin for treating impulse control disorder” (ACADIA Pharmaceuticals Inc., priority 2017, dated 2021)

Legend:
[1] = test system: 6-OHDA lesioned rats; experiment: Forelimb step task (forelimb akinesia) in 6-OHDA lesioned rats; assay type: in vivo; details: co-administration with pramipexole
Procedure: Male Sprague-Dawley (outbred) rats (250-300 g; Harlan Laboratories, Indianapolis, Ind.) are to be pair-housed under environmentally controlled conditions under a 12 h light/dark cycle (lights on at 07:00); food and water are to be available ad libitum.
6-OHDA lesions will be carried out at described previously (Napier et al., Pramipexole-induced increased probabilistic discounting: comparison between a rodent model of Parkinson's disease and controls. Neuropsychopharmacology 37, 1397-1408, 2012). Prior to inducing lesions, desipramine (obtained from Sigma-Aldrich), a norepinephrine reuptake inhibitor, will be administered (25 mg/kg subcutaneously (sc)) to enhance selectivity of 6OHDA for dopamine neurons. Rats were anesthetized with isoflurane and secured in a stereotaxic frame. […]
Rats then will be trained for ICSS followed by probability discounting. […] Pramipexole will be infused for 14 days (optionally a similar time period may be used), during which probability discounting will be assessed each day. Forelimb akinesia will be evaluated before lesion, after lesion, and at various time points during pramipexole administration. […] Probability discounting will be assessed each day of chronic drug treatment; forelimb akinesia will be evaluated before lesion, after lesion, and at various time points during chronic drug administration.

[2] = test system: PD patients; details: cited from earlier work
[3] = test system: rats with 6-hydroxydopamine (6OHDA)-induced lesions of the dorsolateral striatum (DLS); experiment: ICSS-mediated probability discounting (risk-taking) in rat model of PD; assay type: in vivo; details: co-administration with pramipexole
Source text: Impulsiveness includes a greater tendency for risk-taking. This tendency can be quantified using probability discounting procedures; a cross-species assessment in which the subject chooses between a small reinforcer (SR) delivered at a high probability, and a large reinforcer (LR) delivered at a low probability. Typically, the subjective value of the LR is discounted when its probability is low, and individuals then select the smaller, yet more certain reinforcer. Those who suffer from ICD are less sensitive to low probabilities than healthy individuals, and they more frequently select the LR even when the odds to obtain the reward are very low (Hendrickson, et al., Effects of mindful eating training on delay and probability discounting for food and money in obese and healthy-weight individuals. Behav. Res. Ther. 51, 399-409, 2013). […]
Rats then will be trained for ICSS followed by probability discounting. […] Pramipexole will be infused for 14 days (optionally a similar time period may be used), during which probability discounting will be assessed each day. Forelimb akinesia will be evaluated before lesion, after lesion, and at various time points during pramipexole administration. […]

[4] = test system: lean, female, Wistar rats; experiment: Binge-eating on chocolate in rats (BED model); assay type: in vivo
Source text: Carbohydrate and fat ‘comfort foods’, with bingeing on chocolate are known to be associated with eating disorders in humans and in rodents.
BED is, for example, to be studied using lean, female, Wistar rats (weight range 200-250 g at the start of the study) from Charles River, UK. Rats are to be contained in a controlled environment and housed in an appropriate way to perform the study, for example singly-housed in polypropylene cages with wire grid floors to enable food intake of each rat to be recorded. […]
Body weight, food and water intake are to be measured each day throughout the study, for example as described in the following: Animals are to be weighed at weekly intervals after arrival. […] The weights of the jars are to be recorded before and after the 2 h test session. […] The body weight of each rat and its food and water intake are to be measured on every morning of the study; readings are to be taken in the final stage of the light phase at ˜09:45 h. […]
During the training period, an extra food jar (along with the jar containing normal chow) containing chocolate are to be added to the cage for 2 hr/day intermittently, for at least three weeks, using the access schedule above. […] The chocolate and chow consumed during this 2 h period are to be measured. […]

For `CC(C)COc1ccc(CNC(=O)N(Cc2ccc(F)cc2)C2CCN(C)CC2)cc1` [pimavanserin, N-(1-methylpiperidin-4-yl)-N-(4-fluorophenylmethyl)-N′-(4-(2-methylpropyloxy)phenylmethyl)carbamide], the “motor function in rats receiving pramipexole” value [1] is given as “did not alter motor function”, the “hallucinations and delusions associated with PD” value [2] is given as “control hallucinations and delusions” and the “motor function in PD patients” value [2] is given as “without impacting motor function”. The “risk taking behavior in rats receiving pramipexole (proportion of rats selecting LR)” value [3] was “reduced risk taking behavior”, the “consumption of standard laboratory diet during the 2 h binge-eating session” value ([4]; compared to vehicle treated control) was “no effect” and the “consumption of palatable food (chocolate) in 2 h binge-eating session” value ([4]; pimavanserin 0.1, 0.5, 1.0, 3.0, 6.0, 10.0 mg/kg po 60 min prior to session) was “decrease the consumption”.
